Results taken from patent publication US20260293949A1, “CARBONATION SENSATION IMPARTING OR ENHANCING AGENT” (TAKASAGO INTERNATIONAL CORPORATION, priority 2022, published 2026).

Assay: Sensory evaluation of fizziness enhancement in carbonated water (WILKINSON TANSAN), specialized panelists
Format: in vivo
Details: for Fizziness enhancement evaluation result: average score of seven panelists
Method: In the following Examples, the action and effect were verified using a value obtained by calculating an average score of scores for imparting or enhancing fizziness by sensory evaluation conducted by specialized panelists. The expression “1 point” in the evaluation is the evaluation in the case where no component is added at all (no addition).
Diethyl sebacate (manufactured by Inoue Perfumery Mfg. Co., Ltd., the same applies to the following Examples) was separately added to “WILKINSON (registered trademark) TANSAN (manufactured by Asahi Soft Drinks Co., Ltd.)” so as to reach the concentrations shown in Table 2 below, and sensory evaluation was performed by seven specialized panelists to determine the extent to which fizziness was enhanced as compared with a control in which diethyl sebacate was not added.
Diisobutyl adipate (manufactured by Inoue Perfumery Mfg. Co., Ltd., the same applies to the following Examples) was separately added to “WILKINSON (registered trademark) TANSAN (manufactured by Asahi Soft Drinks Co., Ltd.)” so as to reach the concentrations shown in Table 3 below, and sensory evaluation was performed by seven specialized panelists to determine the extent to which fizziness was enhanced as compared with a control in which diisobutyl adipate was not added.
Dimethyl sebacate (manufactured by Tokyo Chemical Industry Co., Ltd.) was separately added to “WILKINSON (registered trademark) TANSAN (manufactured by Asahi Soft Drinks Co., Ltd.)” so as to reach the concentrations shown in Table 4 below, and sensory evaluation was performed by seven specialized panelists to determine the extent to which fizziness was enhanced as compared with a control in which dimethyl sebacate was not added.
Dipropyl adipate (manufactured by Tokyo Chemical Industry Co., Ltd.) was separately added to “WILKINSON (registered trademark) TANSAN (manufactured by Asahi Soft Drinks Co., Ltd.)” so as to reach the concentrations shown in Table 5 below, and sensory evaluation was performed by seven specialized panelists to determine the extent to which fizziness was enhanced as compared with a control in which dipropyl adipate was not added.

SMILES	amelioration of mouthfeel (in words)	fizziness enhancement (in words)	Fizziness enhancement evaluation result (0.005 ppm, 1 (not enhanced) to 5 (extremely enhanced))	Fizziness enhancement evaluation result (0.01 ppm, 1 to 5)	Fizziness enhancement evaluation result (0.1 ppm, 1 to 5)	Fizziness enhancement evaluation result (0.5 ppm, 1 to 5)	Fizziness enhancement evaluation result (1 ppm, 1 to 5)	Fizziness enhancement evaluation result (5 ppm, 1 to 5)	Fizziness enhancement evaluation result (10 ppm, 1 to 5)	Fizziness enhancement evaluation result (20 ppm, 1 to 5)	Fizziness enhancement evaluation result (50 ppm, 1 to 5)	Fizziness enhancement evaluation result (100 ppm, 1 to 5)
CC(C)COC(=O)CCCCC(=O)OCC(C)C [Diisobutyl adipate, diisobutyl adipate]	effect of ameliorating the mouthfeel was also confirmed	fizziness of carbonated water can be enhanced	1.1 points	1.6 points	3.4 points	3.6 points	3.4 points	1.7 points	1.3 points			
COC(=O)CCCCCCCCC(=O)OC [Dimethyl sebacate, dimethyl sebacate]	effect of ameliorating the mouthfeel was also confirmed	fizziness of carbonated water can be enhanced			1.1 points	1.6 points	2.0 points	2.4 points	3.1 points	2.6 points	1.4 points	1.3 points
CCCOC(=O)CCCCC(=O)OCCC [Dipropyl adipate, dipropyl adipate]	effect of ameliorating the mouthfeel was also confirmed	fizziness of carbonated water can be enhanced			1.1 points	1.4 points	1.9 points	2.6 points	3.0 points	1.7 points	1.4 points	1.1 points
